#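 Cells were grown in 96-well plates and exposed to each compound for 48 hours at five concentrations; endpoints were interpolated linearly between bracketing concentrations, or set to the highest concentration if not reached. Definition used: TGI = concentration required for complete inhibition of growth.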
# How the values were obtained:
# Experiment in all cases: DTP human tumour cell line panel, 48 h
# SNB-75 CNS = system: SNB-75 CNS
# SR leukemia = system: SR leukemia
# A498 renal = system: A498 renal
# SNB-19 CNS = system: SNB-19 CNS
# UACC-257 melanoma = system: UACC-257 melanoma
# OVCAR-3 ovarian = system: OVCAR-3 ovarian
# MALME-3M melanoma = system: MALME-3M melanoma
# SK-MEL-5 melanoma = system: SK-MEL-5 melanoma
# MDA-MB-231 breast = system: MDA-MB-231 breast
# SN12C renal = system: SN12C renal
structure (smiles),measurement,setting,value
O=C(NC(=S)Nc1ccc([N+](=O)[O-])cc1)c1ccc2c(c1)Sc1ccccc1O2,TGI,SNB-75 CNS,29.6 µM
same,TGI,SR leukemia,> 100 µM
same,TGI,A498 renal,> 100 µM
same,TGI,SNB-19 CNS,> 100 µM
same,TGI,UACC-257 melanoma,> 100 µM
same,TGI,OVCAR-3 ovarian,> 100 µM
same,TGI,MALME-3M melanoma,> 100 µM
same,TGI,SK-MEL-5 melanoma,> 100 µM
same,TGI,MDA-MB-231 breast,> 100 µM
same,TGI,SN12C renal,> 100 µM
O=P(O)(O)c1ccc(-c2ccc(I)cc2)cc1,TGI,SNB-75 CNS,> 100 µM
same,TGI,SR leukemia,> 100 µM
same,TGI,SNB-19 CNS,> 100 µM
same,TGI,UACC-257 melanoma,> 100 µM
same,TGI,MALME-3M melanoma,> 100 µM
same,TGI,SK-MEL-5 melanoma,> 100 µM
same,TGI,MDA-MB-231 breast,> 100 µM
same,TGI,SN12C renal,> 100 µM
Cc1cc2nc3c(C#N)c4c(c(Nc5ccc(F)cc5)n3c2cc1C)CCC4,TGI,SNB-75 CNS,> 100 µM
same,TGI,SR leukemia,> 100 µM
same,TGI,SNB-19 CNS,> 100 µM
same,TGI,UACC-257 melanoma,> 100 µM
same,TGI,OVCAR-3 ovarian,> 100 µM
same,TGI,MALME-3M melanoma,> 100 µM
same,TGI,SK-MEL-5 melanoma,> 100 µM
same,TGI,MDA-MB-231 breast,> 100 µM
same,TGI,SN12C renal,> 100 µM
N#Cc1c(N)oc(-c2ccc([N+](=O)[O-])cc2)c1C#N,TGI,SNB-75 CNS,47.1 µM
same,TGI,SR leukemia,> 100 µM
same,TGI,A498 renal,53.5 µM
same,TGI,SNB-19 CNS,91.6 µM
same,TGI,UACC-257 melanoma,62 µM
same,TGI,MALME-3M melanoma,95.9 µM
same,TGI,SK-MEL-5 melanoma,36.4 µM
same,TGI,MDA-MB-231 breast,64.3 µM
same,TGI,SN12C renal,52.1 µM
COC(=O)CN(CC(=O)NCCCBr)C1CCCCC1N(CC(=O)OC)CC(=O)OC (stereo unspecified),TGI,SNB-75 CNS,64.9 µM
same,TGI,SR leukemia,> 100 µM
same,TGI,A498 renal,> 100 µM
same,TGI,SNB-19 CNS,> 100 µM
same,TGI,UACC-257 melanoma,> 100 µM
same,TGI,OVCAR-3 ovarian,> 100 µM
same,TGI,SK-MEL-5 melanoma,> 100 µM
same,TGI,MDA-MB-231 breast,> 100 µM
same,TGI,SN12C renal,> 100 µM
COc1cc(C2c3cc4c(cc3OC(NNc3ccccc3)C2C)OCO4)cc(OC)c1OC (stereo unspecified),TGI,SNB-75 CNS,> 62.7 µM
same,TGI,A498 renal,6.76 µM
same,TGI,SNB-19 CNS,> 31 µM
same,TGI,UACC-257 melanoma,> 100 µM
same,TGI,OVCAR-3 ovarian,19.2 µM
same,TGI,MALME-3M melanoma,> 38.5 µM
same,TGI,SK-MEL-5 melanoma,21 µM
same,TGI,MDA-MB-231 breast,> 63.4 µM
same,TGI,SN12C renal,> 62 µM
COC1/C=C/C=C(/C)Cc2cc(O)c(Cl)c(c2)N(C)C(=O)CC(OC(=O)C(C)C)C2(C)OC2C(C)C2CC1(O)NC(=O)O2 (stereo unspecified),TGI,SNB-75 CNS,2.08 µM
same,TGI,SR leukemia,> 55.4 µM
same,TGI,SNB-19 CNS,> 100 µM
same,TGI,UACC-257 melanoma,> 100 µM
same,TGI,OVCAR-3 ovarian,> 100 µM
same,TGI,MALME-3M melanoma,> 100 µM
same,TGI,SK-MEL-5 melanoma,< 0.0116 µM
same,TGI,MDA-MB-231 breast,> 42.3 µM
same,TGI,SN12C renal,> 44.7 µM
Clc1cc(-c2ccccc2)nc(Nc2nc3ccccc3[nH]2)n1,TGI,SNB-75 CNS,> 100 µM
same,TGI,SR leukemia,10.5 µM
same,TGI,A498 renal,98.3 µM
same,TGI,SNB-19 CNS,> 100 µM
same,TGI,UACC-257 melanoma,44 µM
same,TGI,MALME-3M melanoma,69.1 µM
same,TGI,SK-MEL-5 melanoma,> 100 µM
same,TGI,MDA-MB-231 breast,33.9 µM
same,TGI,SN12C renal,63 µM
Cc1ncc([N+](=O)[O-])n1CC[N+](C)([O-])CCCCn1ccnc1[N+](=O)[O-] (stereo unspecified),TGI,SNB-75 CNS,> 100 µM
same,TGI,SR leukemia,> 100 µM
same,TGI,A498 renal,> 100 µM
same,TGI,UACC-257 melanoma,> 100 µM
same,TGI,OVCAR-3 ovarian,> 100 µM
same,TGI,MALME-3M melanoma,> 100 µM
same,TGI,SK-MEL-5 melanoma,> 100 µM
same,TGI,MDA-MB-231 breast,> 100 µM
same,TGI,SN12C renal,> 100 µM
CSc1cc(Cl)c(C)cc1S(=O)(=O)NC(=O)NNc1ccc(F)cc1,TGI,SNB-75 CNS,> 100 µM
same,TGI,SR leukemia,> 100 µM
same,TGI,A498 renal,> 100 µM
same,TGI,SNB-19 CNS,> 100 µM
same,TGI,OVCAR-3 ovarian,> 100 µM
same,TGI,MALME-3M melanoma,> 100 µM
same,TGI,SK-MEL-5 melanoma,> 100 µM
same,TGI,MDA-MB-231 breast,> 100 µM
same,TGI,SN12C renal,> 100 µM
CC(C)(C)NC1=NC(C(F)(F)F)(C(F)(F)F)NC(=O)N1,TGI,SNB-75 CNS,> 100 µM
same,TGI,SR leukemia,> 100 µM
same,TGI,SNB-19 CNS,> 100 µM
same,TGI,UACC-257 melanoma,> 100 µM
same,TGI,OVCAR-3 ovarian,> 100 µM
same,TGI,MALME-3M melanoma,> 100 µM
same,TGI,SK-MEL-5 melanoma,80.5 µM
same,TGI,MDA-MB-231 breast,> 100 µM
same,TGI,SN12C renal,> 100 µM
COc1cccc2c1NC(=O)Cc1c-2[nH]c2ccccc12,TGI,SNB-75 CNS,> 100 µM
same,TGI,SR leukemia,> 100 µM
same,TGI,A498 renal,> 100 µM
same,TGI,OVCAR-3 ovarian,> 100 µM
same,TGI,MALME-3M melanoma,> 100 µM
same,TGI,SK-MEL-5 melanoma,> 100 µM
same,TGI,MDA-MB-231 breast,> 100 µM
